We go through 1 compound from US20230398153A1, “A METHOD FOR EFFICIENT MICROGLIA REPLACEMENT” (The Board of Trustees of the Leland Stanford Junior …, priority 2020, published 2023).

One experiment relates to endogenous microglia. The experiment can be described thus: Direct intracerebral injection of GFP bone marrow cells with or without PLX5622 pre-treatment. The format is in vivo, mouse. Particulars: 21-day PLX5622 pre-treatment; 14 days post IC injection. The protocol:
FIG. 1. Microglia replacement after bone marrow transplantation is a slow, inefficient and variable process. (A) Schematic overview of bone marrow transplantation (HSCT). Recipient mice were received intraperitoneal (IP) injection of busulfan for 5 days at 25 mg/kg/day (i.e. 125 mg/kg total dose) and then transplanted with GFP-expressing bone marrow cells via intravenous (IV) injection. Donor chimerism in peripheral blood (PB) and brain myeloid cells was analyzed at the indicated time points. (B and C) Donor chimerism in PB leukocytes (CD45+ cells) and brain myeloid cells (CD45+CD11b+ cells) was analyzed by flow cytometry at the indicated time point. […] GFP chimerism in PB leukocytes (B) (Mean±SEM, n=5-20/time point, ***p<0.001, ns: not significant, ANOVA). GFP chimerism in brain myeloid cells (C) (Mean±SEM, n=5/time point, *p<0.05, **p<0.01, ns: not significant, ANOVA). (D) Flow cytometry analysis of GFP+bone marrow cells 14 days after direct intracerebral (IC) injection with (bottom) and without (top) PLX5622 pre-treatment of recipient mice. […] (F) Quantification of transplanted GFP+bone marrow cells in coronal brain sections. […] Horizontal bars represent mean values (n=3/group, 3 brain slices/animal were quantified. **p<0.01, ***p<0.001, Student's t-test). […] (H) Microglia chimerism was analyzed by flow cytometry 14 days post IV injection. […]

Experiment [1] relates to myeloid cells of the spinal cord. The experiment can be described thus: Microglia replacement in the spinal cord after BMT+PLX protocol. The format is in vivo, mouse. Particulars: PLX5622 treated group. The source says:
FIG. 21. Efficient microglia replacement in the spinal cord following our BMT+PLX protocol.
Many CNS diseases affect primarily the spinal cord. To evaluate whether our microglia replacement protocol is truly CNS-wide we characterized the spinal cords following a replacement as described above. Indeed, when using GFP-expressing donor cells we were able to identify a high and robust chimerism of GFP-positive, transplanted cell among the myeloid cells of the spinal cord (FIG. 21),

Take `COc1ncc(F)cc1CNc1ccc(Cc2c[nH]c3ncc(C)cc23)c(F)n1` [PLX5622]: the “fate of bone marrow cells injected into the brain” value with endogenous microglia was “adopted microglia-like morphologies, expressed the microglial marker Iba-1, were more numerous, and dispersed wider into the brain parenchyma”. Further, in experiment [1], the “myeloid cells GFP+ in total spinal cord by flow cytometry” value is 90%.
